Laboratory results: patent US11052142B2, “Modified endotoxic bacteria lipopolysaccharide (variants), combination of modified lipopolysaccharides (variants) and, containing same, a vaccine (variants) and a pharmaceutical composition (variants)” (priority 2013, dated 2021)
Where two headings read alike, the source gives them in different places.

What was measured:
TNF-α [1] = assay: In vivo production of TNF-α in blood serum after i.v. administration to mice (data from patent RU 2154068)
Text: In this case the vertical axis represents the values for TNF-α concentrations (pg/mL) and the values for IL-6 concentrations (ng/mL). The horizontal axis represents (A and B) the values for injection dose of preparation OM174 (mg/kg) to mice. The vertical axis (C) represents the value for injection dose of LPS ([…]; positive control) and saline solution (0.85% NaCl solution; negative control) to mice.
The solid lines represent the lines of extrapolation for the values of doses for OM174: 0.20; 2.00; 2.01; 3.40 and 28.10 (A and B) and the values of doses for Westphal LPS E coli O:111B4: 0.002; 0.020; 0.200 and 2.000 (C).
According to data from patent RU 2154068, tri-acylated and tetra-acylated lipids A of E. coli, H. influenzae and P. aeruginosa are powerful inducers of mediator of endotoxin reaction—TNF-α. Table 1 represents data extrapolated from graphs on FIG. 1 (A, B, C) relating to in vivo TNF-α production in serum after i.v. administration of tri-acylated lipid A (3-acLA) of E. coli OM-174 and Westphal LPS E. coli O:111B4 to mice. Only 10-fold difference was detected for induction of TNF-α in vivo between E. coli OM-174 tri-acylated lipid A and commercially available endotoxin Westphal LPS E. coli O:111 B4, it is evidence that there is essential endotoxicity of E. coli tri-acetylated lipid A, excluding its use both as vaccine or vaccine component (adjuvant).

TNF-α [2] = conditions: mice, i.v., extrapolated from graphs of RU 2154068, cited from earlier work

CCCCCCCCCCCC(=O)O[C@H](CCCCCCCCCCC)CC(=O)N[C@H]1[C@H](OC[C@H]2O[C@H](OP(=O)(O)O)[C@H](NC(=O)C[C@H](O)CCCCCCCCCCC)[C@@H](O)[C@@H]2O)O[C@H](CO)[C@@H](OP(=O)(O)O)[C@@H]1O [3-acLA E. coli - OM174]
difference for induction of TNF-α in vivo versus Westphal LPS E. coli O:111 B4 (TNF-α [1]): 10 fold
TNF-α concentration (TNF-α [2]; dose 0.2 mg/kg): 328 pg/mL
TNF-α concentration (TNF-α [2]; dose 2.0 mg/kg): 1644 pg/mL
TNF-α concentration (TNF-α [2]; dose 2.01 mg/kg): 1416 pg/mL
TNF-α concentration (TNF-α [2]; dose 3.4 mg/kg): 2000 pg/mL
TNF-α concentration (TNF-α [2]; dose 28.1 mg/kg): 2750 pg/mL
